The values that follow come from patent US20080287534A1, “Method for Controlling Insect Pests on Plants” (priority 2005, published 2008).

Assay type in all cases: in vivo
Data set [1] deals with tobacco budworm (Heliothis virescens). As to the kind of experiment: Test B: control of tobacco budworm by soil application to tomato plants, excised-leaf feeding, visual mortality. Conditions: 96 h, read-out: % Mortality (Observed). How it is done:
(§1) For evaluating control of cabbage looper (Trichoplusia ni) and tobacco budworm (Heliothis virescens), methomyl was in liquid formulation as Lannate® LV (29% of active ingredient). Oxamyl was in liquid formulation as Vydate® L (24% of active ingredient).
(§2) The test compounds were dissolved in water. Enough water was added to make 57 ppm of the Lannate® LV and 250 and 500 ppm of active ingredient for Vydate® L. To obtain the desired mixture concentrations of each compound, twice the desired concentration of each of the two mixture compounds were mixed together in equal volumes.
(§3) For the cabbage looper trial, diluted solutions (50 mL) of the test compounds were applied to the soil surface of five-week-old cabbage plants at the desired concentrations, corresponding to 135 g a.i./ha (g active ingredient/hectare) of methomyl and 404 and 807 g a.i./ha of oxamyl. For the tobacco budworm trial, diluted solutions (50 mL) of the test compounds were applied to the soil surface of five-week-old tomato plants at the desired concentrations, corresponding to 92 g a.i./ha (g active ingredient/hectare) of methomyl and 404 and 807 g a.i./ha of oxamyl. The plants were maintained in a greenhouse for 24 h. From each plant, leaves were excised, cut into pieces, and placed singly into 5.5 cm-by-3.5 cm cell of a sixteen-cell plastic tray. Each cell contained solidified agar (3 to 5 mL) to prevent desiccation. A single 4-day old insect larva was placed in each cell, with two trays per treatment. Trays were held in a growth chamber at 25° C., 16-hour light/8-hour dark photoperiod, 60% relative humidity for 4 days.

Data set [2] deals with beet armyworm (Spodoptera exigua). Kind of data set: Test A: control of beet armyworm by soil application to tomato plants, excised-leaf feeding, visual mortality. How it is done: For evaluating control of beet armyworm (Spodoptera exigua), methomyl was in liquid formulation as Lannate® LV (29% of active ingredient). Oxamyl was in liquid formulation as Vydate® L (24% active ingredient).
The test compounds were dissolved in water. Enough water was added to make 29 ppm of active ingredient for Lannate® LV and 500 ppm of active ingredient for Vydate® L. To obtain the desired mixture concentrations of each compound, twice the desired concentration of each of the two mixture partner compounds were mixed together in equal volumes.
Diluted solutions (50 mL) of the test compounds were applied to the soil surface of five-week-old tomato plants at the desired concentration, corresponding to 47 g a.i./ha (g active ingredient/hectare) of methomyl and 807 g a.i./ha of oxamyl. The plants were maintained in a greenhouse for 24 h. From each plant, leaves were excised, cut into pieces, and placed singly into 5.5 cm-by-3.5 cm cell of a sixteen-cell plastic tray. Each cell contained solidified agar (3 to 5 mL) to prevent desiccation. A single 4-day old insect larva was placed in each cell, with one tray per treatment. Trays were held in a growth chamber at 25° C., 16-hour light/8-hour dark photoperiod, 60% relative humidity for 4 days.

In data set [3] the test system is cabbage looper (Trichoplusia ni). As to the kind of experiment: Test B: control of cabbage looper by soil application to cabbage plants, excised-leaf feeding, visual mortality. Conditions: 96 h, read-out: % Mortality (Observed). How it is done: as §1, §2, §3

In general, mortality refers to the share of the test organisms that died. Consider `CNC(=O)ON=C(C)SC` [Methomyl, methyl N-[[(methylamino)carbonyl]oxy]-ethanimidothioate], for which the mortality at 92 g/ha in data set [1] (methomyl 92 g a.i./ha, soil application, five-week-old tomato plants) is 41%. In addition, the mortality at 47 g/ha in data set [2] (Spodoptera exigua, methomyl 47 g a.i./ha, soil application, five-week-old tomato plants, evaluated at 96 h, read-out: % mortality (observed)) is 44%. The mortality at 135 g/ha in data set [3] (methomyl 135 g a.i./ha, soil application, five-week-old cabbage plants) is 75%.

Turning to `CNC(=O)ON=C(SC)C(=O)N(C)C` [Oxamyl, methyl 2-(dimethylamino)-N-[[(methylamino)-carbonyl]oxy]-2-oxoethanimidothioate], the figures for the mortality at 404 g/ha in data set [1] (soil) and in data set [3] (soil) were 6% and 16%, respectively. For the same compound, the mortality at 807 g/ha in data set [1] (soil) stood at 13%; in data set [2] (Spodoptera exigua, soil, 96 h, read-out: % mortality (observed)), 0%; in data set [3] (soil), 38%. In addition, the “% mortality (observed)” value in data set [2] (oxamyl 807 g a.i./ha, soil application, five-week-old tomato plants, evaluated at 96 h) is “no mortality”.
